From the supplement of paper PMC9663587

Experiments:
MCF7 = assay: GRmax, 72 h; higher = less effect;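 note: breast cell lines in 384-well plates, nine doses across a 10^4 range, Dye Drop imaging of viable cells vs DMSO and time-zero plates, GR 0 means no net growth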
MDAMB415 = assay: GRmax, 72 h; higher = less effect;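 note: breast cell lines in 384-well plates, nine doses across a 10^4 range, Dye Drop imaging of viable cells vs DMSO and time-zero plates, GR 0 means no net growth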
HCC1187 [1] = assay: GRmax, 72 h; higher = less effect;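 note: breast cell lines in 384-well plates, nine doses across a 10^4 range, Dye Drop imaging of viable cells vs DMSO and time-zero plates, GR 0 means no net growth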
CAL51 = assay: GRmax, 72 h; higher = less effect;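 note: breast cell lines in 384-well plates, nine doses across a 10^4 range, Dye Drop imaging of viable cells vs DMSO and time-zero plates, GR 0 means no net growth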
HCC1419 = assay: GRmax, 72 h; higher = less effect
HCC1143 = assay: GRmax, 72 h; higher = less effect
MGH312 = assay: GRmax, 72 h; higher = less effect
BT474 = assay: GRmax, 72 h; higher = less effect
HCC1806 = assay: GRmax, 72 h; higher = less effect
HCC1187 [2] = assay: area over the GR curve, 72 h; higher = more effect;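 note: Dye Drop or Deep Dye Drop imaging of viable cells in 384-well plates (Hoechst nuclei, LIVE/DEAD dye), nine half-log doses, GR normalized to DMSO controls and time-zero plates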
SUM185PE = assay: area over the GR curve, 72 h; higher = more effect;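 note: Dye Drop or Deep Dye Drop imaging of viable cells in 384-well plates (Hoechst nuclei, LIVE/DEAD dye), nine half-log doses, GR normalized to DMSO controls and time-zero plates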
HCC1954 = assay: area over the GR curve, 72 h; higher = more effect;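 note: Dye Drop or Deep Dye Drop imaging of viable cells in 384-well plates (Hoechst nuclei, LIVE/DEAD dye), nine half-log doses, GR normalized to DMSO controls and time-zero plates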
HS578T = assay: area over the GR curve, 72 h; higher = more effect;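 note: Dye Drop or Deep Dye Drop imaging of viable cells in 384-well plates (Hoechst nuclei, LIVE/DEAD dye), nine half-log doses, GR normalized to DMSO controls and time-zero plates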

Compound | GRmax, 72 h (MCF7) [GR] | GRmax, 72 h (MDAMB415) [GR] | GRmax, 72 h (HCC1187 [1]) [GR] | GRmax, 72 h (CAL51) [GR] | GRmax, 72 h (HCC1419) [GR] | GRmax, 72 h (HCC1143) [GR] | GRmax, 72 h (MGH312) [GR] | GRmax, 72 h (BT474) [GR] | GRmax, 72 h (HCC1806) [GR] | area over the GR curve (HCC1187 [2]) [GR] | area over the GR curve (SUM185PE) [GR] | area over the GR curve (HCC1954) [GR] | area over the GR curve (HS578T) [GR]
COc1ccc2c(c1)[C@]1(C[C@H]1c1ccc3c(/C=C/c4ccc(CN5C[C@@H](C)O[C@@H](C)C5)cc4)n[nH]c3c1)C(=O)N2 | -0.0551 | 0.157 | -0.485 | 0.0084 | 0.32 | 0.0518 | -0.28 | 0.18 | -0.106 | 0.535 | 0.161 | 0.995 | 0.941
COc1cccc(OCCCN)c1-c1cc(Nc2cnc(C#N)cn2)n[nH]1 | 0.211 | 0.69 | -0.498 | 0.0443 | 0.248 | -0.117 | 0.887 | 0.715 | -0.476 | 0.235 | 0.167 | 1.21 | 1.3
CC(=O)Nc1cccc(-n2c(=O)n(C3CC3)c(=O)c3c(Nc4ccc(I)cc4F)n(C)c(=O)c(C)c32)c1 (max 1 µM) | 0.558 | 0.285 | 0.76 | 0.706 | 0.426 | -0.0225 | 1.12 | 1.36 | 0.704 | 0.198 | -0.0188 | 0.401 | 0.491
CCc1cnn2c(NCc3ccc[n+]([O-])c3)cc(N3CCCC[C@H]3CCO)nc12 (max 1 µM) | -0.249 | -0.488 | -0.791 | -0.358 | -0.476 | -0.253 | -0.951 | -0.762 | -0.459 | 0.942 | 0.261 | 0.629 | 0.616
CC(=O)c1c(C)c2cnc(Nc3ccc(N4CCNCC4)cn3)nc2n(C2CCCC2)c1=O (max 3.162 µM) | 0.254 | 0.117 | 0.646 | 0.361 | 0.441 | 0.282 | 1.03 | 0.519 | 0.692 | 0.268 | 0.0458 | 0.176 | 0.32
CCc1cncnc1N1CCN(Cc2nc3ccc(C(F)(F)F)cc3[nH]2)CC1 (max 10 µM) | 0.558 | 0.431 | 0.575 | 0.734 | 0.349 | 0.739 | 0.311 | 0.508 | 1.15 | 0.014 | 0.144 | -0.0456 | 0.0252
CCCCOc1c(C(=O)c2c(F)cc(C)cc2F)c[nH]c2nncc1-2 (max 10 µM) | 0.072 | 0.24 | 0.437 | 0.28 | 0.4 | -0.0529 | 0.0975 | 0.503 | 0.0151 | 0.203 | 0.103 | 0.835 | 0.651
